# In US20020147136A1, “Compounds for targeting endothelial cells, compositions containing the same and methods for their use” (priority 2000, published 2002):
# Residues, ends and D or L forms follow the SMILES beside them.
# Assays:
# HAEC = experiment: Inhibition of TKPPR-bubble binding to HAEC in static culture by competing agents; assay type: cell-based, human; conditions: for inhibition of bubble binding: 10 μM free TKPPR; for Bubbles Bound (average of duplicate): 1% BRU-114 bubbles
# Method: Vials of the compositions of example 5 and of example 6 may be reconstituted with 5 mL of sterile saline, injected using a 20-guage 1.5 inch needle. Bubbles may be then formed within the vials by shaking by hand vigorously for 30 seconds. 1 to 5 mL of the bubble formulation may be removed from each vial and diluted with 3 volumes of D-PBS (without calcium or magnesium) within 1 hour of use.
# Chamber slides containing confluent HAEC may be drained of culture medium, which was immediately replaced with one of the final bubble solutions prepared above. The wells may be slightly overfilled such that the liquid meniscus protrudes slightly above the plastic well-forming scaffold of the slide. Bubble solutions may be only added to alternate wells to minimize liquid cross-talk. The wells may be sealed with a piece of Parafilm and the slide incubated 20 minutes, inverted (according to Klibanov A. L., Advanced drug Delivery Reviews, 37, 1999, 139-157) to allow the bubbles to rise and make contact with the cells, after which the solutions may be poured off. Weakly associated bubbles may be removed by washing each well twice with 0.5 mL of D-PBS, swirling gently each time before pouring off. Additional D-PBS (0.5 mL) may be added to wells after the washes to keep the cells submerged until microscopic evaluation.
# Composition I of Example 5 was repeated exactly as described except that 0.5 mg DPPE-GTKPPR was added (instead of 2.5 mg) yielding compositions with 1% DPPE-GTKPPR. Vials of this composition as well as that of composition I ofExample 5 (5% DPPE-GTKPPR) were reconstituted with 5 mL of sterile saline, injected using a 20-guage 1.5 inch needle. Bubbles were then formed within the vials by shaking by hand vigorously for 30 seconds. 1 to 5 mL of the bubble formulation was removed from each vial and diluted with 3 volumes of D-PBS (without calcium or magnesium) within 1 hour of use.
# Chamber slides containing confluent HAEC were drained of culture medium, which was immediately replaced with one of the final bubble solutions prepared above. The wells were slightly overfilled such that the liquid meniscus protruded slightly above the plastic well-forming scaffold of the slide. Bubble solutions were only added to alternate wells to minimize liquid cross-talk. The wells were sealed with a piece of Parafilm and the slide was incubated 20 minutes, inverted to allow the bubbles to rise and make contact with the cells, after which the solutions were poured off. Weakly associated bubbles were removed by washing each well twice with 0.5 mL of D-PBS, swirling gently each time pouring off. Additional D-PBS (0.5 mL) was added to wells after the washes to keep the cells submerged until microscopic evaluation.
# Assays were performed as described for Example 7 using microbubble compositions containing 2% BRU-114 (Composition I of Example 5) as a % of total phospholipid in the composition.
# Compositions were reconstituted and assays were performed as described in Example 7 using microbubble compositions containing 1% BRU-114 (Composition I of Example 5) as a % of total phospholipid in the composition.
# Assays were performed as described for Example 7 using microbubble compositions containing 2% BRU-114 (as a % of total phospholipid in the composition).
# NP-1/Fc = experiment: Inhibition of 125I-VEGF165 binding to NP-1/Fc; conditions: 250 pM 125I-VEGF165, 4° C., 2 hours
# Method: The ability of various compositions comprising TKPPR monomers or multimers to inhibit ^125I-VEGF binding to NP-1 was evaluated using NP-1/Fc. Competitive binding assays with microtiter plates coated with NP-1/Fc (R&D sytems) were performed using ^125I-VEGF165 as radioligand (Amersham Pharmacia Biotech Cat. No. IM274, Specific Activity: 1000-2500 Ci/mmol). […] Plates (Nunc MaxiSorp white opaque Microtiter plate [C-bottom, 437796]) were coated by incubating the wells with 75 µl of a solution containing 3 μlg/mL NP-1/Fc in D-PBS/0.1% NaAzide overnight at 4° C. after covering with sealing tape (Dynex, VWR Cat. No. 62402-931). […] All points were derived from triplicate wells, and for each set of replicates in NP-1/Fc-coated wells, a companion set in the absence of the receptor was included. For competitive binding, a series of unlabelled competitor concentrations were prepared in a 250 pM solution of ^1251-VEGF165 in assay buffer Solutions were added to 1.2 ml polypropylene tubes conforming to the microtiter format (Costar Cat. No. 29442-602), and transferred from these tubes to microtiter wells, without further dilution, using a multichannel pipettor. After addition of the appropriate solutions, microtiter plates were incubated at 4° C. for 2 hours. […] The plates were blotted dry and 25 μl deionized water and 100 μl scintillation fluid (Optiphase SuperMix, Wallac) were added to each well. Plates were agitated using a Plate Shaker (Hyperion, Cat. No. 4030-100F) for 3-5 minutes and were then counted using a Microplate Scintillation Counter (Wallac Microbeta Trilux) A set of serially diluted 125I-VEGF165 standard wells ranging from 200 to 0.04 pM were included with each experiment to aid in quantification of the amount of radiolabel bound.
# Neuropilin-1/Fc = experiment: Fluorescence polarization binding to NP-1/Fc; conditions: unlabeled competitor; read-out: IC50 for competing BRU-326 binding to NP-1
smiles,measurement,setting,value
"CC(O)C(N)C(=O)NC(CCCCN)C(=O)N1CCCC1C(=O)N1CCCC1C(=O)NC(CCCNC(=N)N)C(=O)O [TKPPR, L-Arginine, L-threonyl-L-lysyl-L-prolyl-L-prolyl] (H-TKPPR-OH; configuration not given here)",inhibition of bubble binding,HAEC; 1% composition bubbles,82.7%
same,inhibition of bubble binding,HAEC; 5% composition bubbles,no inhibition
same,block of bubble association with HAEC,"HAEC; Example 7, 10 to 100 μM free TKPPR peptide",blocked
same,Bubbles Bound (average of duplicate),HAEC; competitor 5 microM,790
same,Bubbles Bound (average of duplicate),HAEC; competitor 10 microM,528
same,Bubbles Bound (average of duplicate),HAEC; competitor 25 microM,106
same,Bubbles Bound % of control binding,"HAEC; competitor 25 microM, 2% BRU-114 bubbles",16%
same,Bubbles Bound (average of duplicate),HAEC; competitor 50 microM,56
same,Bubbles Bound (average of duplicate),HAEC; competitor 100 microM,17
same,Average % Inhibition of bubble binding,"HAEC; free TKPPR 5 μM, 1% composition bubbles",45.7%
same,Average % Inhibition of bubble binding,"HAEC; free TKPPR 10 μM, 1% composition bubbles",79.6%
same,Average % Inhibition of bubble binding,"HAEC; free TKPPR 25 μM, 1% composition bubbles",82.0%
same,Average % Inhibition of bubble binding,"HAEC; free TKPPR 50 μM, 1% composition bubbles",92.7%
same,Average % Inhibition of bubble binding,"HAEC; free TKPPR 100 μM, 1% composition bubbles",93.7%
same,HAEC bubbles bound,"HAEC; free TKPPR 100 μM, 5% bubbles (Composition I of Example 5)",58
same,IC50,NP-1/Fc,43 µM
same,IC50,Neuropilin-1/Fc,80 µM
